In publication PMC10094158, “Discovery of a photoactivatable dimerized STING agonist based on the benzo[b]selenophene scaffold” (Chemical Science, 2023):

What was measured:
[1] = target: T1, hSTING^HAQ (Stimulator of interferon genes) (Homo sapiens, UniProt Q86WV6, R71H/G230A/H232R/R293Q); test: thermal shift (DSF), ΔTm; assay type: binding
T1 construct: gene STING1

[2] = target: T2, hSTING^H232 (Stimulator of interferon genes) (Homo sapiens, UniProt Q86WV6, H232); test: SPR (KD […]); also ITC (KD […]), DSF and […] Å co-crystal structure; assay type: binding
T2 construct: gene STING1
T2 sequence (Q86WV6 whole entry, change not shown): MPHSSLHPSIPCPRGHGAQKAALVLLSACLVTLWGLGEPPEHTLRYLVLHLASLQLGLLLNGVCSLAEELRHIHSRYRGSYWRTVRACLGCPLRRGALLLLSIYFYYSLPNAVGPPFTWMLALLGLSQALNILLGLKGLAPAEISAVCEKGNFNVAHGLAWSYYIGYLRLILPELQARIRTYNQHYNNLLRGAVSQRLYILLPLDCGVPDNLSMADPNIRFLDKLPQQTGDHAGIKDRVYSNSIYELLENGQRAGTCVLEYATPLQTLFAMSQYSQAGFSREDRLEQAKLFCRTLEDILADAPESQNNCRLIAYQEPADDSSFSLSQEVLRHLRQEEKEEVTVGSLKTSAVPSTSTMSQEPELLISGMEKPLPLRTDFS

T1 sequence (Q86WV6 whole entry R71H/G230A/H232R/R293Q): as the sequence (Q86WV6 whole entry, change not shown) above, with R71H, G230A, H232R, R293Q counted along it

With `COc1cc2[se]c(C(=O)CCC(=O)O)cc2cc1OCCCOc1cc2cc(C(=O)CCC(=O)O)[se]c2cc1OC` [diBSP01] the “thermal shift (DSF), ΔTm” value [1] was 27.0 °C and the Kd [2] was 49 nM.
